For ten compounds, MIC results are on record in ChEMBL document CHEMBL1151264, “Investigation of brominated tryptophan alkaloids from two thorectidae sponges: Thorectandra and Smenospongia” (2005).

Values after ≈ are worked out from the molar mass of the structure shown.

For the assay, the system named is Staphylococcus epidermidis. The assay is described as follows: Antibacterial activity against Staphylococcus epidermidis ATCC 12228. It counts as functional.

For the compound `CN1C(=N)N(C)C(Cc2c[nH]c3cc(Br)ccc23)C1=O` (stereo not given), the MIC (in general, the smallest concentration in the dilution series that meets the test's criterion for growth inhibition) was determined as 25 µg/mL (≈ 74.6 µM). To `COC1(Cc2c[nH]c3cc(Br)ccc23)C(=O)N(C)C(=N)N1C` (stereo not given) belongs 100 µg/mL (≈ 274 µM). In the case of `CN1C(=N)N(C)/C(=C/c2c[nH]c3ccccc23)C1=O` [APLYSINOPSIN] it was 25 µg/mL (≈ 98.3 µM). To `CN1C(=N)N(C)C(O)(Cc2c[nH]c3cc(Br)ccc23)C1=O` (stereo not given) belongs 12.5 µg/mL (≈ 35.6 µM); to `COC(=O)c1c[nH]c2cc(Br)ccc12`, 50 µg/mL (≈ 197 µM). As for `CCOC1(Cc2c[nH]c3cc(Br)ccc23)C(=O)N(C)C(=N)N1C` (stereo not given), the minimum inhibitory concentration (MIC) was 12.5 µg/mL (≈ 33 µM). On to `COC(=O)Cc1c[nH]c2cc(Br)ccc12`, for which the lowest concentration to inhibit growth (MIC) was 6.25 µg/mL (≈ 23.3 µM). In the case of `CN(C)[C@@H](Cc1c[nH]c2ccc(Br)cc12)C(=O)O` it was 25 µg/mL (≈ 80.3 µM); in that of `C[N+](C)(C)[C@@H](Cc1c[nH]c2ccc(Br)cc12)C(=O)O`, 100 µg/mL. In the case of `CN[C@H](CC(C)C)C(=O)N[C@H]1C(=O)N[C@@H](CC(N)=O)C(=O)N[C@H]2C(=O)N[C@H]3C(=O)N[C@H](C(=O)N[C@H](C(=O)O)c4cc(O)cc(O)c4-c4cc3ccc4O)[C@H](O)c3ccc(c(Cl)c3)Oc3cc2cc(c3O[C@@H]2O[C@H](CO)[C@@H](O)[C@H](O)[C@H]2O[C@H]2C[C@](C)(N)[C@H](O)[C@H](C)O2)Oc2ccc(cc2Cl)[C@H]1O` [VANCOMYCIN] it was 0.625 µg/mL (≈ 0.431 µM).
